Test results as given in patent US20260193238A1, “PHARMACEUTICAL COMPOUNDS AS PARP7 AND/OR PARP1 INHIBITORS” (Duke Street Bio Limited, priority 2022, published 2026).

Target: PARP1 (Homo sapiens, UniProt P09874)
Experiment: PARP1 biochemical DELFIA assay (auto-PARylation)
Procedure: Prior to assay, wells were washed 3×5 min in coating wash buffer.
% data was fitted to a non-linear regression equation (log inhibitor vs response-variable slope 4-parameters) to obtain IC50 values.

Sequence of PARP1 (P09874 whole entry): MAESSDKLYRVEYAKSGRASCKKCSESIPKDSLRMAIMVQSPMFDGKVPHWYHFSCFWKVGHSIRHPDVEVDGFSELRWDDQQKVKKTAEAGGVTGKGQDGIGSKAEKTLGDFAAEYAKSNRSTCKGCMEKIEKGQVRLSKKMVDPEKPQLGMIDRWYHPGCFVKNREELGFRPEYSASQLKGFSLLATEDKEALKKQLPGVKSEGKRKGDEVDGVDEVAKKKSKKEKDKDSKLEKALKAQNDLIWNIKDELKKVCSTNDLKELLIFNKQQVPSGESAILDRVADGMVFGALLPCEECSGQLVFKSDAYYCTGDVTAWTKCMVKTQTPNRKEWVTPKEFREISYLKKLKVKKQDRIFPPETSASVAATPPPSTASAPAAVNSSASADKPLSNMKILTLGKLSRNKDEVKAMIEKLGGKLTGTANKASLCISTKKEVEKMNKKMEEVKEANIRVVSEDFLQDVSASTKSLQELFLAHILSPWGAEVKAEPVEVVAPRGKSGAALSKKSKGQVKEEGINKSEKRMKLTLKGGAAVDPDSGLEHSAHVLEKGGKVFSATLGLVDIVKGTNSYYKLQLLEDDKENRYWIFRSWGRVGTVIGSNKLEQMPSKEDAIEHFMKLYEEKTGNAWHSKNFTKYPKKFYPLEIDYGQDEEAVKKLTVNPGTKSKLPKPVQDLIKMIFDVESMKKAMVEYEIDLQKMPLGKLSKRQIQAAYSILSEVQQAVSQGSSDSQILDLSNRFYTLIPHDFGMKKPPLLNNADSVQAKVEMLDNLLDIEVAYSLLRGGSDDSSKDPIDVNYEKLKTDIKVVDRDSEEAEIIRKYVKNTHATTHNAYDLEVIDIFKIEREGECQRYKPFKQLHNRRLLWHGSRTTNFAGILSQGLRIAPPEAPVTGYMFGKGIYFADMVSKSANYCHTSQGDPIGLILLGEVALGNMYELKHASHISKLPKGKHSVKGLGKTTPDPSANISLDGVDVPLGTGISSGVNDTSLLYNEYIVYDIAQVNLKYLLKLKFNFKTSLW

SMILES: O=C(CCN1CCCC(c2cc(C(F)(F)F)c(=O)[nH]n2)C1)N1CCN(c2ccc(F)cn2)CC1 (single isomer, unassigned) [Compound 8b]
- IC50 (Table 1): 0.1 to 1 µM

SMILES: CC1(C)CC(c2cc(C(F)(F)F)c(=O)[nH]n2)CN(CCC(=O)N2CCN(c3ncc(C(F)(F)F)cn3)CC2)C1 (single isomer, unassigned) [Compound 87a]
- IC50 (Table 1A): 0.1 to 1 µM

SMILES: O=C(CN1Cc2ccccc2C1c1cc(C(F)(F)F)c(=O)[nH]n1)N1CCN(c2ncc(C(F)(F)F)cn2)CC1 (single isomer, unassigned) [Compound 104b, 6-(2-(2-oxo-2-(4-(5-(trifluoromethyl)pyrimidin-2-yl)piperazin-1-yl)ethyl)isoindolin-1-yl)-4-(trifluoromethyl)pyridazin-3(2H)-one]
- IC50 (Table 1A): 1 to 10 µM

SMILES: O=C(CN1CCCC1c1cc(C(F)(F)F)c(=O)[nH]n1)N1CCN(c2ncc(C(F)(F)F)s2)CC1 (racemic) [Compound 52rac]
- IC50 (Table 1A): ≤ 0.01 µM

SMILES: O=C(CN1CCCC1c1cc(C(F)(F)F)c(=O)[nH]n1)N1CCN(c2ncc(Cl)cc2Cl)CC1 (single isomer, unassigned) [Compound 125a]
- IC50 (Table 1A): 0.1 to 1 µM

SMILES: CNC(=O)c1ccc(N2CCN(C(=O)CN3CCC(c4n[nH]c(=O)c5ccccc45)CC3)CC2)cn1 [Compound 50]
- IC50 (Table 1A): 0.01 to 0.1 µM

SMILES: O=C(CN1CCCC1c1cc(C(F)(F)F)c(=O)[nH]n1)N1CCC2(CC1)CN(c1ncc(C(F)(F)F)cn1)C2 (single isomer, unassigned) [Compound 101b]
- IC50 (Table 1A): 0.1 to 1 µM

SMILES: O=C(CN1CCCC1c1cc(C(F)(F)F)c(=O)[nH]n1)N1CCN(c2ccc(Cl)cn2)CC1 (single isomer, unassigned) [Compound 41b]
- IC50 (Table 1A): 1 to 10 µM

SMILES: Cn1c(N2CCN(C(=O)CN3CCCC3c3cc(C(F)(F)F)c(=O)[nH]n3)CC2)nc2ccccc21 (single isomer, unassigned) [Compound 97b]
- IC50 (Table 1A): 1 to 10 µM

SMILES: O=C(CCN1CCCC(c2cc(C(F)(F)F)c(=O)[nH]n2)C1)N1CCN(c2ncc(C(F)(F)F)cn2)CC1 (single isomer, unassigned) [Compound 1b, 6-(1-(3-oxo-3-(4-(5-(trifluoromethyl)pyrimidin-2-yl)piperazin-1-yl)propyl)piperidin-3-yl)-4-(trifluoromethyl)pyridazin-3(2H)-one]
- IC50 (Table 1): 0.01 to 0.1 µM

SMILES: O=C(CCN1CCN(c2ncc(C(F)(F)F)cn2)CC1)N1CCCC(c2cc(C(F)(F)F)c(=O)[nH]n2)C1 (single isomer, unassigned) [Compound 9a]
- IC50 (Table 1): 0.1 to 1 µM

SMILES: O=C(CCN1CCCC(c2cc(C(F)(F)F)c(=O)[nH]n2)C1)N1CCN(c2cnc(C(F)(F)F)cn2)CC1 (racemic) [Compound 30rac]
- IC50 (Table 1): 0.1 to 1 µM

SMILES: O=C(CN1CCCC1c1cc(C(F)(F)F)c(=O)[nH]n1)N1CCN(c2ncc(F)cc2F)CC1 (single isomer, unassigned) [Compound 83b]
- IC50 (Table 1A): > 10 µM

SMILES: O=C(CN1CC(F)(F)C[C@@H]1c1cc(C(F)(F)F)c(=O)[nH]n1)N1CCN(c2ncc(C(F)(F)F)cn2)CC1 [Compound 91a, (R)-6-(4,4-difluoro-1-(2-oxo-2-(4-(5-(trifluoromethyl)pyrimidin-2-yl)piperazin-1-yl)ethyl)pyrrolidin-2-yl)-4-(trifluoromethyl)pyridazin-3(2H)-one]
- IC50 (Table 1A): 0.1 to 1 µM

SMILES: CN(c1ncc(C(F)(F)F)cn1)C1CCN(C(=O)CN2CCCC2c2cc(C(F)(F)F)c(=O)[nH]n2)CC1 (single isomer, unassigned) [Compound 107b]
- IC50 (Table 1A): > 10 µM

SMILES: O=C(CN1CCCC1c1cc(C(F)(F)F)c(=O)[nH]n1)N1CCN(c2ncc(F)cn2)CC1 (single isomer, unassigned) [Compound 43a]
- IC50 (Table 1A): 0.01 to 0.1 µM

SMILES: O=C(CN1CCCC1c1cc(C(F)(F)F)c(=O)[nH]n1)N1CCN(c2ncc(F)cc2C(F)(F)F)CC1 (single isomer, unassigned) [Compound 120a]
- IC50 (Table 1A): 1 to 10 µM

SMILES: O=C(CN1CCCC1c1cc(C(F)(F)F)c(=O)[nH]n1)N1CCN(c2nc3cc(F)ccc3o2)CC1 (single isomer, unassigned) [Compound 150b]
- IC50 (Table 1A): 1 to 10 µM

SMILES: Cn1c(N2CCN(C(=O)CN3CCCC3c3cc(C(F)(F)F)c(=O)[nH]n3)CC2)nc2ccccc21 (single isomer, unassigned) [Compound 97a]
- IC50 (Table 1A): 0.1 to 1 µM

SMILES: O=C(CN1CCN(c2ncc(C(F)(F)F)cn2)CC1)N1CCCC1c1cc(C(F)(F)F)c(=O)[nH]n1 (single isomer, unassigned) [Compound 32b]
- IC50 (Table 1): > 10 µM

SMILES: O=C(CCN1CCCC(c2cc(C(F)(F)F)c(=O)[nH]n2)C1)N1CCN(c2ncc(C(F)(F)F)cn2)CC1 (single isomer, unassigned) [Compound 1a, 6-(1-(3-oxo-3-(4-(5-(trifluoromethyl)pyrimidin-2-yl)piperazin-1-yl)propyl)piperidin-3-yl)-4-(trifluoromethyl)pyridazin-3(2H)-one]
- IC50 (Table 1): 0.1 to 1 µM

SMILES: O=C(CN1CC(F)(F)C[C@H]1c1cc(C(F)(F)F)c(=O)[nH]n1)N1CCN(c2ncc(C(F)(F)F)cn2)CC1 [Compound 91b, (S)-6-(4,4-difluoro-1-(2-oxo-2-(4-(5-(trifluoromethyl)pyrimidin-2-yl)piperazin-1-yl)ethyl)pyrrolidin-2-yl)-4-(trifluoromethyl)pyridazin-3(2H)-one]
- IC50 (Table 1A): 1 to 10 µM

SMILES: O=C(CN1CCCC1c1cc(C(F)(F)F)c(=O)[nH]n1)N1CCN(c2nc3ccc(F)cn3n2)CC1 (single isomer, unassigned) [Compound 128b]
- IC50 (Table 1A): 1 to 10 µM

SMILES: O=C(CN1CCCC1c1cc(C(F)(F)F)c(=O)[nH]n1)N1CCN(c2ncc(F)cc2F)CC1 (single isomer, unassigned) [Compound 83a]
- IC50 (Table 1A): 0.1 to 1 µM

SMILES: O=C(CN1CCCC1c1c[nH]c(=O)c(Cl)c1)N1CCN(c2ncc(C(F)(F)F)cn2)CC1 (single isomer, unassigned) [Compound 78a, 3-chloro-5-(1-(2-oxo-2-(4-(5-(trifluoromethyl)pyrimidin-2-yl)piperazin-1-yl)ethyl)pyrrolidin-2-yl)pyridin-2(1H)-one]
- IC50 (Table 1A): 0.1 to 1 µM

SMILES: O=C(CN1CCCC1c1c[nH]c(=O)c(C(F)(F)F)c1)N1CCN(c2ncc(Cl)cn2)CC1 (single isomer, unassigned) [Compound 74b]
- IC50 (Table 1A): 1 to 10 µM

SMILES: CNC(=O)c1ccc(N2CCN(C(=O)CN3CCOCC3c3cc(C(F)(F)F)c(=O)[nH]n3)CC2)cn1 (single isomer, unassigned) [Compound 90b]
- IC50 (Table 1A): 1 to 10 µM

SMILES: CNC(=O)c1ccc(N2CCN(C(=O)CCN3CCC3c3cc(C(F)(F)F)c(=O)[nH]n3)CC2)cn1 (single isomer, unassigned) [Compound 56b]
- IC50 (Table 1A): 0.1 to 1 µM

SMILES: CCc1cc(C2CCCN(CCC(=O)N3CCN(c4ncc(C(F)(F)F)cn4)CC3)C2)n[nH]c1=O (single isomer, unassigned) [Compound 6b, 4-ethyl-6-(1-(3-oxo-3-(4-(5-(trifluoromethyl)pyrimidin-2-yl)piperazin-1-yl)propyl)piperidin-3-yl)pyridazin-3(2H)-one]
- IC50 (Table 1): 0.1 to 1 µM

SMILES: O=C(CN1CCCC1c1c[nH]c(=O)c(C(F)(F)F)n1)N1CCN(c2ncc(C(F)(F)F)cn2)CC1 (single isomer, unassigned) [Compound 84a, 5-(1-(2-oxo-2-(4-(5-(trifluoromethyl)pyrimidin-2-yl)piperazin-1-yl)ethyl)pyrrolidin-2-yl)-3-(trifluoromethyl)pyrazin-2(1H)-one]
- IC50 (Table 1A): 1 to 10 µM

SMILES: N#Cc1ccc2nc(N3CCN(C(=O)CN4CCCC4c4cc(C(F)(F)F)c(=O)[nH]n4)CC3)oc2c1 (single isomer, unassigned) [Compound 96a]
- IC50 (Table 1A): 0.1 to 1 µM

SMILES: CNC(=O)c1ccc(N2CCN(C(=O)CN3CCC(c4cc(C(F)(F)F)c(=O)[nH]n4)CC3)CC2)cn1 [Compound 64]
- IC50 (Table 1A): 0.1 to 1 µM

SMILES: O=C(CCN1CCCC(c2c[nH]c(=O)c(C(F)(F)F)c2)C1)N1CCN(c2ncc(C(F)(F)F)cn2)CC1 (single isomer, unassigned) [Compound 25b]
- IC50 (Table 1): 0.01 to 0.1 µM

SMILES: O=C(CN1CCCC1c1cc(C(F)(F)F)c(=O)[nH]n1)N1CCN(c2ccc(F)cn2)CC1 (single isomer, unassigned) [Compound 46b]
- IC50 (Table 1A): 0.1 to 1 µM

SMILES: N#Cc1ccc2oc(N3CCN(C(=O)CN4CCCC4c4cc(C(F)(F)F)c(=O)[nH]n4)CC3)nc2c1 (single isomer, unassigned) [Compound 100b]
- IC50 (Table 1A): 0.1 to 1 µM

SMILES: O=C(CN1CCCC1c1cc(C(F)(F)F)c(=O)[nH]n1)N1CCN(c2nc3cc(Cl)ccc3o2)CC1 (single isomer, unassigned) [Compound 99b]
- IC50 (Table 1A): 1 to 10 µM

SMILES: O=C(CCN1CCCCC1c1cc(C(F)(F)F)c(=O)[nH]n1)N1CCN(c2ncc(C(F)(F)F)cn2)CC1 (racemic) [Compound 21rac]
- IC50 (Table 1): 0.01 to 0.1 µM

SMILES: O=C(CN1Cc2ccccc2C1c1cc(C(F)(F)F)c(=O)[nH]n1)N1CC(Oc2ncc(C(F)(F)F)cn2)C1 (single isomer, unassigned) [Compound 114b]
- IC50 (Table 1A): 1 to 10 µM

SMILES: CC(C)(C)c1cnc(N2CCN(C(=O)CN3CCCC3c3cc(C(F)(F)F)c(=O)[nH]n3)CC2)nc1 (single isomer, unassigned) [Compound 82b]
- IC50 (Table 1A): 1 to 10 µM

SMILES: CNC(=O)c1ccc(N2CCN(C(=O)CCN3CCCC(c4cc(C(F)(F)F)c(=O)[nH]n4)C3)CC2)nc1 (single isomer, unassigned) [Compound 28b]
- IC50 (Table 1): 0.1 to 1 µM

SMILES: N#Cc1cc(F)cnc1N1CCN(C(=O)CN2CCCC2c2cc(C(F)(F)F)c(=O)[nH]n2)CC1 (single isomer, unassigned) [Compound 146a]
- IC50 (Table 1A): 0.1 to 1 µM

SMILES: O=C(CN1CCCCC1c1cc(C(F)(F)F)c(=O)[nH]n1)N1CCN(c2ncc(C(F)(F)F)cn2)CC1 (single isomer, unassigned) [Compound 66b]
- IC50 (Table 1A): > 10 µM

SMILES: O=C(CN1CCCC1c1cc(C(F)(F)F)c(=O)[nH]n1)N1CCN(c2nc3ccc(Cl)cc3o2)CC1 (single isomer, unassigned) [Compound 85b]
- IC50 (Table 1A): 1 to 10 µM

SMILES: N#Cc1cnc(N2CCN(C(=O)CN3CCCC3c3cc(C(F)(F)F)c(=O)[nH]n3)CC2)c(C(F)(F)F)c1 (single isomer, unassigned) [Compound 124b]
- IC50 (Table 1A): 1 to 10 µM

SMILES: O=C(CCN1CCCCC(c2cc(C(F)(F)F)c(=O)[nH]n2)C1)N1CCN(c2ncc(C(F)(F)F)cn2)CC1 (racemic) [Compound 12rac]
- IC50 (Table 1): 0.1 to 1 µM

SMILES: O=C(CN1CCCC1c1cc(C(F)(F)F)c(=O)[nH]n1)N1CCN(c2ccc(C3CC3)cn2)CC1 (single isomer, unassigned) [Compound 79a]
- IC50 (Table 1A): 0.01 to 0.1 µM
